Literature values, collected in patent US6670393B2, “Carbamate-based cationic lipids” (Promega Biosciences, Inc., priority 1995, dated 2003).

System: cells

For `CC(C)CCC[C@@H](C)[C@H]1CC[C@H]2[C@@H]3CC=C4C[C@@H](OC(=O)NCCN(C)C)CC[C@]4(C)[C@H]3CC[C@]12C` [DC-Chol], the “toxicity to cells (reported)” value is listed as “lower toxicity” and the “transfection (reported)” value is listed as “more efficient transfection”.
